Assay results published in patent US20230111853A1, “COMPOUNDS MODULATING PROTEIN RECRUITMENT AND/OR DEGRADATION” (Orionis Biosciences, Inc., priority 2019, published 2023).

System: IKZF1, ASS1 and SALL4 recruitment to CRBN
Assay: Recruitment assessment: recruitment of any tested substrate from among IKZF1, ASS1 and SALL4
Format: cell-based
Conditions: any tested substrate at any tested compound concentration
Description: In this experimental set-up, cells were transfected with a construct encoding a CRBN-fusion protein and another one encoding a substrate-fusion protein. Test compound activity was assessed with increasing concentrations of test compounds (dose-response studies) to monitor the ability to promote CRBN-ligand-induced protein interaction.
Full size proteins were fused for each of the target proteins tested, except in the case of IKZF1 where isoform 7 was used. For the study, the following were used: IKZF1 recruitment: pSEL-CRBN+pMG1-IKZF1(isoform 7); ASS1 recruitment: pSEL-CRBN+pMG1-ASS1. SALL4 recruitment: pSEL-SALL4+pMG1-CRBN. […] Luciferase activity was measured 24 hours after test compound treatment using the Luciferase Assay System kit (PROMEGA, Madison, Wis.) with an Ensight plate reader (PERKIN ELMER LIFE SCIENCES, Waltham, Mass.). Data points depicted fold induction of the average luciferase activity of triplicate samples from EPO+test compound treated cells versus EPO only treated cells. Error bars represent standard deviations. Curves were fit using 4-parameter nonlinear regression in […] PRISM software.

SMILES	Recruitment Assessment
O=C1CCC(N2Cc3ccccc3C2=O)C(=O)N1 (single isomer, unassigned) [5′-OH-THL, 3-(1-oxoisoindolin-2-yl)piperidine-2,6-dione, reference compound]	FALSE
O=C1N=c2ccc(NC(=O)NCc3ccccc3)cc2=N1 [1-benzyl-3-(2-oxobenzimidazol-5-yl)urea]	FALSE
O=C(O)CNc1cccc2c1CN(C1CCC(=O)NC1=O)C2=O (stereo not drawn) [2-[[2-(2,6-dioxo-3-piperidyl)-1-oxo-isoindolin-4-yl]amino]acetic acid]	FALSE
O=C1CCC(N2C(=O)c3ccccc3C2OCc2ccccc2)C(=O)N1 (stereo not drawn) [3-(1-benzyloxy-3-oxo-isoindolin-2-yl)piperidine-2,6-dione]	FALSE
O=C1CCC(N2Cc3ccccc3C2=O)C(=O)N1 (stereo not drawn) [3-(1-oxoisoindolin-2-yl)piperidine-2,6-dione]	TRUE
Nc1cccc2c1C(=O)N(C1CCC(=O)NC1=O)C2 (stereo not drawn) [3-(7-amino-1-oxo-isoindolin-2-yl)piperidine-2,6-dione]	TRUE
O=C1CCC(N2C(=O)c3ccccc3C2OC2CCCCC2)C(=O)N1 (stereo not drawn) [3-[1-(cyclohexoxy)-3-oxo-isoindolin-2-yl]piperidine-2,6-dione]	FALSE
O=C1CCC(N2C(=O)c3ccccc3C2Nc2ccccc2)C(=O)N1 (stereo not drawn) [C10537, 3-(1-anilino-3-oxo-isoindolin-2-yl)piperidine-2,6-dione]	FALSE
COc1ccc(C2c3ccccc3C(=O)N2C2CCC(=O)NC2=O)cc1 (stereo not drawn) [C11892]	FALSE
O=C1CCC(N2Cc3ccc(NCC(=O)N4CCCCC4)cc3C2=O)C(=O)N1 (stereo not drawn) [C12581, 3-[1-oxo-6-[[2-oxo-2-(1-piperidyl)ethyl]amino]isoindolin-2-yl]piperidine-2,6-dione]	FALSE
CC1CCN(C(=O)CNc2ccc3c(c2)C(=O)N(C2CCC(=O)NC2=O)C3)CC1 (stereo not drawn) [C12582, 3-[6-[[2-(4-methyl-1-piperidyl)-2-oxo-ethyl]amino]-1-oxo-isoindolin-2-yl]piperidine-2,6-dione]	FALSE
CC1CCCN(C(=O)CNc2ccc3c(c2)C(=O)N(C2CCC(=O)NC2=O)C3)C1 (stereo not drawn) [C12583, 3-[6-[[2-(3-methyl-1-piperidyl)-2-oxo-ethyl]amino]-1-oxo-isoindolin-2-yl]piperidine-2,6-dione]	FALSE
CC1CCCCN1C(=O)CNc1ccc2c(c1)C(=O)N(C1CCC(=O)NC1=O)C2 (stereo not drawn) [C12584, 3-[6-[[2-(2-methyl-1-piperidyl)-2-oxo-ethyl]amino]-1-oxo-isoindolin-2-yl]piperidine-2,6-dione]	FALSE
CC1CN(C(=O)CNc2ccc3c(c2)C(=O)N(C2CCC(=O)NC2=O)C3)CCO1 (stereo not drawn) [C12586, 3-[6-[[2-(2-methylmorpholin-4-yl)-2-oxo-ethyl]amino]-1-oxo-isoindolin-2-yl]piperidine-2,6-dione]	FALSE
O=C1CCC(N2Cc3ccc(NCC(=O)N4CC5CC4CO5)cc3C2=O)C(=O)N1 (stereo not drawn) [C12589, 3-[6-[[2-(2-oxa-5-azabicyclo[2.1.1]heptan-5-yl)-2-oxo-ethyl]amino]-1-oxo-isoindolin-2-yl]piperidine]	FALSE
CC1CN(C)CCN1C(=O)CNc1ccc2c(c1)C(=O)N(C1CCC(=O)NC1=O)C2 (stereo not drawn) [C12595, 3-[6-[[2-(2,4-dimethylpiperazin-1-yl)-2-oxo-ethyl]amino]-1-oxo-isoindolin-2-yl]piperidine-2,6-dione]	FALSE
CN1CCN(C(=O)CNc2ccc3c(c2)C(=O)N(C2CCC(=O)NC2=O)C3)CC1=O (stereo not drawn) [C12597, 3-[6-[[2-(4-methyl-3-oxo-piperazin-1-yl)-2-oxo-ethyl]amino]-1-oxo-isoindolin-2-yl]piperidine-2,6-dione]	FALSE
CC1CN(C(=O)CNc2ccc3c(c2)C(=O)N(C2CCC(=O)NC2=O)C3)CC(=O)N1 (stereo not drawn) [C12598, 3-[6-[[2-(3-methyl-5-oxo-piperazin-1-yl)-2-oxo-ethyl]amino]-1-oxo-isoindolin-2-yl]piperidine-2,6-dione]	FALSE
CC1CC(NC(=O)CNc2ccc3c(c2)C(=O)N(C2CCC(=O)NC2=O)C3)CCO1 (stereo not drawn) [C12695, 2-[[2-(2,6-dioxo-3-piperidyl)-3-oxo-isoindolin-5-yl]amino]-N-(2-methyltetrahydropyran-4-yl)acetamide]	FALSE
CC1CCCN(C(=O)CNc2ccc3c(c2)C(=O)N(C2CCC(=O)NC2=O)C3)CC1 (stereo not drawn) [C12697, 3-[6-[[2-(4-methylazepan-1-yl)-2-oxo-ethyl]amino]-1-oxo-isoindolin-2-yl]piperidine-2,6-dione]	FALSE
O=C1CCC(N2C(=O)CCC2=O)C(=O)N1 (stereo not drawn) [C14950, 3-(2,5-dioxopyrrolidin-1-yl)piperidine-2,6-dione]	FALSE
O=C1Cc2ccccc2C(=O)N1 [C15352, 4H-isoquinoline-1,3-dione]	FALSE
O=C1c2ccccc2CC1n1ccc(=O)[nH]c1=O (stereo not drawn) [C16899, 1-(1-oxoindan-2-yl)pyrimidine-2,4-dione]	FALSE

SMILES	Recruitment Assessment
CNC(=O)Nc1cccc2c1CN(C1CCC(=O)NC1=O)C2=O (stereo not drawn) [C22594, 1-[2-(2,6-dioxo-3-piperidyl)-1-oxo-isoindolin-4-yl]-3-methyl-urea]	TRUE
O=C1CCC(CN2C(=O)c3ccccc3C2=O)C(=O)N1 (stereo not drawn) [C23258, 2-[(2,6-dioxo-3-piperidyl)methyl]isoindoline-1,3-dione]	FALSE
Cc1cccc2c1C(=O)N(C1CCC(=O)NC1=O)C2 (stereo not drawn) [C28661, 3-(7-methyl-1-oxo-isoindolin-2-yl)piperidine-2,6-dione]	FALSE
O=C1CCC(N2Cc3cc(O)ccc3C2=O)C(=O)N1 (stereo not drawn) [C28891, 3-(5-hydroxy-1-oxo-isoindolin-2-yl)piperidine-2,6-dione]	TRUE
O=C1CCC(N2Cc3ccc(O)cc3C2=O)C(=O)N1 (stereo not drawn) [C28928, 3-(6-hydroxy-1-oxo-isoindolin-2-yl)piperidine-2,6-dione]	TRUE
O=C1CCC(N2Cc3cccc(O)c3C2=O)C(=O)N1 (stereo not drawn) [C28973, 3-(7-hydroxy-1-oxo-isoindolin-2-yl)piperidine-2,6-dione]	TRUE
COc1cccc2c1C(=O)N(C1CCC(=O)NC1=O)C2 (stereo not drawn) [C29137, 3-(7-methoxy-1-oxo-isoindolin-2-yl)piperidine-2,6-dione]	FALSE
CC(=O)Nc1cccc2c1CN(C1CCC(=O)NC1=O)C2=O (stereo not drawn) [C29330, N-[2-(2,6-dioxo-3-piperidyl)-1-oxo-isoindolin-4-yl]acetamide]	TRUE
CC(=O)Nc1ccc2c(c1)C(=O)N(C1CCC(=O)NC1=O)C2 (stereo not drawn) [C29408, N-[2-(2,6-dioxo-3-piperidyl)-3-oxo-isoindolin-5-yl]acetamide]	FALSE
CC(=O)Nc1cccc2c1C(=O)N(C1CCC(=O)NC1=O)C2 (stereo not drawn) [C29457, N-[2-(2,6-dioxo-3-piperidyl)-3-oxo-isoindolin-4-yl]acetamide]	TRUE
NC(=O)Nc1cccc2c1CN(C1CCC(=O)NC1=O)C2=O (stereo not drawn) [C29490, [2-(2,6-dioxo-3-piperidyl)-1-oxo-isoindolin-4-yl]urea]	TRUE
O=C1c2c(F)c(F)c(F)c(F)c2C(=O)N1c1ccc(F)cc1F [C34491, 2-(2,4-difluorophenyl)-4,5,6,7-tetrafluoro-isoindoline-1,3-dione]	FALSE
Nc1cccc2c(=O)n(C3CCC(=O)NC3=O)nnc12 (stereo not drawn) [C35833, 3-(8-amino-4-oxo-1,2,3-benzotriazin-3-yl)piperidine-2,6-dione]	FALSE
COc1cnccc1C(=O)Nc1ccc2c(c1)=NC(=O)N=2 [C36124, 3-methoxy-N-(2-oxobenzimidazol-5-yl)pyridine-4-carboxamide]	FALSE
O=C1CCc2cc(C(=O)N3CCCc4ccccc43)cnc2N1 [C36126, 6-(3,4-dihydro-2H-quinoline-1-carbonyl)-3,4-dihydro-1H-1,8-naphthyridin-2-one]	FALSE
O=C1CCc2cc(C(=O)N3CCc4cccnc43)cnc2N1 [C36128, 6-(2,3-dihydropyrrolo[2,3-b]pyridine-1-carbonyl)-3,4-dihydro-1H-1,8-naphthyridin-2-one]	FALSE
Cc1c(N)cccc1C(=O)NC1CCC(=O)NC1=O (stereo not drawn) [C38930, 3-amino-N-(2,6-dioxo-3-piperidyl)-2-methyl-benzamide]	FALSE
NC(=O)c1ccc2c(c1)C(=O)N(C1CCC(=O)NC1=O)C2 (stereo not drawn) [C39772, 2-(2,6-dioxo-3-piperidyl)-3-oxo-isoindoline-5-carboxamide]	FALSE
O=C1CCC(Nc2cnc3ccccc3n2)C(=O)N1 (stereo not drawn) [C44292, 3-(quinoxalin-2-ylamino)piperidine-2,6-dione]	FALSE
O=C1CCC(N2Cc3ccc(C(F)(F)F)cc3C2=O)C(=O)N1 (stereo not drawn) [C45748, 3-[1-oxo-6-(trifluoromethyl)isoindolin-2-yl]piperidine-2,6-dione]	FALSE
O=C1CCC(N2C(=O)c3ccccc3C2NC(=O)c2ccccc2)C(=O)N1 (stereo not drawn) [C46003, N-[2-(2,6-dioxo-3-piperidyl)-3-oxo-isoindolin-1-yl]benzamide]	FALSE
Nc1cccc2c1CN(C1CC(=O)NC(=O)C1)C2=O [C47927, 4-(4-amino-1-oxo-isoindolin-2-yl)piperidine-2,6-dione]	TRUE
